We go through seven compounds from US9028856B2, “Synergistic pesticide compositions” (priority 2008, dated 2015).

Data set [1] concerns Culex quinquefasciatus mosquito. As to the kind of experiment: USDA Petri Dish Method, 3 min exposure to treated glazed tile (twenty 4-6 day old females). Format: in vivo. To be noted: for % KD and Mortality 3′ / % KD and Mortality 9′ / % KD and Mortality 15′ / % KD and Mortality 30′ / % KD and Mortality 1 h / % KD and Mortality 24 h: Table 73, in acetone, glazed tiles, 3′ exposure time; for % KD and Mortality 3′: 20 insects (three replicates); for % KD and Mortality 9′ / % KD and Mortality 15′ / % KD and Mortality 30′ / % KD and Mortality 1 h / % KD and Mortality 24 h: 20 insects; for Average % Mortality after 1 hr / Average % Mortality after 3 hr / Average % Mortality after 5 hr / Average % Mortality after 24 hr: Table 77, carbaryl study, Culex quinquefasciatus; for Average % Mortality after 1 hr: glazed tile, 3 min exposure, adjuvant = Compound A 1% + Compound B 0.5%. The protocol:
(§1) MATERIALS AND METHODS: Solutions of resmethrin at 1 and 0.5% AI were prepared with and without adjuvant in acetone. […] USDA Petri Dish Method was used as initial screening protocol. Twenty, 4-6 day old female Culex quinquefasciatus mosquitoes were exposed to each treatment for 3 minutes and then moved to a clean untreated white paper index card. Treatments were replicated a minimum of three times. Mosquito knockdown was evaluated at 3 minute intervals for the first 15 minutes and then at 5 minute intervals for the remainder of an hour. A small cotton ball soaked in sucrose solution was added on the screen top of the petri-dish as a drinking source after the 2 hour evaluation. Mortality was evaluated at 24 hours after exposure.
Treatments were allowed to dry overnight. USDA Petri Dish Method was used as initial screening protocol. Twenty, 4-6 day old female Culex mosquitoes were exposed to each treatment for 3 minutes and then moved to a clean untreated white paper index card. Treatments were replicated a minimum of three times. Mosquito knockdown was evaluated at various intervals through 3 hours after exposure. A small cotton ball soaked in sucrose solution was added on the screen top of the petri-dish as a drinking source. Mortality was evaluated at 24 hours after exposure.
Treatments were allowed to dry overnight. USDA Petri Dish Method was used as initial screening protocol. Twenty, 4-6 day old female Culex quinquefasciatus mosquitoes were exposed to each treatment for 3 minutes and then moved to a clean untreated white paper index card. Treatments were replicated a minimum of three times. Mosquito knockdown was evaluated at various intervals through 2 hours after exposure. A small cotton ball soaked in sucrose solution was then added on the screen top of the petri-dish as a drinking source. Mortality was evaluated at 24 hours after exposure.
Treatments were allowed to dry overnight. USDA Petri Dish Method was used as initial screening protocol. Twenty, 4-6 day old female Culex quinquefasciatus mosquitoes were exposed to each treatment for 3 minutes and then moved to a clean untreated white paper index card. Treatments were replicated a minimum of three times. Mosquito knockdown was evaluated at various hourly intervals. A small cotton ball soaked in sucrose solution was added on the screen top of the petri-dish as a drinking source after 2 hours. Mortality was evaluated at 24 hours after exposure.

For data set [2], the system named is Argentine ant, Linepithema humile. Description: Knockdown/mortality of ant workers under continuous exposure on treated glazed tile. The note with it: Table 49, fipronil/adjuvant in acetone, glazed tile. In outline:
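0.5% AI imidacloprid in acetone, alone or with 0.1, 1.0 or 5.0% additive (benzenepropanoic acid, oleic acid, methyl oleate, methyl linoleate, methyl palmitate or BHA), 1 ml dried overnight on glazed tile (~161 cm^2). Ten workers confined under continuous exposure, water from 3 h; knockdown/mortality scored at intervals and 24 h; ≥3 replicates.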

The next data set deals with Aedes aegypti mosquito. Description: USDA Petri Dish Method, 3 min exposure to treated glazed tile. Type of data set: in vivo. The note with it: glazed tile, 3 min exposure. The protocol:
Treatments were allowed to dry overnight. USDA Petri Dish Method was used as initial screening protocol. Twenty, 4-6 day old female Aedes aegypti mosquitoes were exposed to each treatment for 3 minutes and then moved to a clean untreated white paper index card. Treatments were replicated a minimum of three times. Mosquito knockdown was evaluated at various intervals through 7 hours after exposure. A small cotton ball soaked in sucrose solution was added on the screen top of the petri-dish as a drinking source. Mortality was evaluated at 24 hours after exposure.
as §1, with “Aedes aegypti” for “Culex quinquefasciatus”, “source.” for “source after the 2 hour evaluation.”
Treatments were allowed to dry overnight. USDA Petri Dish Method was used as initial screening protocol. Twenty, 4-6 day old female Aedes aegypti mosquitoes were exposed to each treatment for 3 minutes and then moved to a clean untreated white paper index card. Treatments were replicated a minimum of three times. Mosquito knockdown was evaluated at various intervals through 6 hours after exposure. A small cotton ball soaked in sucrose solution was added on the screen top of the petri-dish as a drinking source. Mortality was evaluated at 24 hours after exposure.
Treatments were allowed to dry overnight. USDA Petri Dish Method was used as initial screening protocol. Twenty, 4-6 day old female Aedes aegypti mosquitoes were exposed to each treatment for 3 minutes and then moved to a clean untreated white paper index card. Treatments were replicated a minimum of three times. Mosquito knockdown was evaluated at 5 minute intervals for the first hour and then at 2, 4 and 6 hours. A small cotton ball soaked in sucrose solution was added on the screen top of the petri-dish as a drinking source. Mortality was evaluated at 24 hours after exposure.
Treatments were allowed to dry overnight. USDA Petri Dish Method was used as initial screening protocol. Twenty, 4-6 day old female Aedes aegypti mosquitoes were exposed to each treatment for 3 minutes and then moved to a clean untreated white paper index card. Treatments were replicated a minimum of three times. Mosquito knockdown was evaluated at 3-5 minute intervals for the first hour. A small cotton ball soaked in sucrose solution was then added on the screen top of the petri-dish as a drinking source. Mortality was evaluated at 24 hours after exposure.
Treatments were allowed to dry overnight. USDA Petri Dish Method was used as initial screening protocol. Twenty, 4-6 day old female Aedes aegypti mosquitoes were exposed to each treatment for 3 minutes and then moved to a clean untreated white paper index card. Treatments were replicated a minimum of three times. Mosquito knockdown was evaluated at various intervals through 2 hours after exposure. A small cotton ball soaked in sucrose solution was then added on the screen top of the petri-dish as a drinking source. Mortality was evaluated at 24 hours after exposure.
Treatments were allowed to dry overnight. USDA Petri Dish Method was used as initial screening protocol. Twenty, 4-6 day old female Aedes aegypti mosquitoes were exposed to each treatment for 3 minutes and then moved to a clean untreated white paper index card. Treatments were replicated a minimum of three times. Mosquito knockdown was evaluated at various hourly intervals. […]

The subject of data set [3] is Odorous House ant, Tapinoma sessile. As to the kind of experiment: Knockdown/mortality of ant workers under continuous exposure on treated glazed tile. Format: in vivo. To be noted: Table 51, fipronil/adjuvant in acetone, glazed tile. The text has this: Actual coverage was about 5″×5″ (or 161 cm2) for easy handling. Treatments were allowed to dry overnight. […] Treatments were replicated minimum three times.
(§2) Treatments were allowed to dry overnight. […] Treatments were replicated minimum three times.
(§3) Treatments were allowed to dry overnight. […] Treatments were replicated a minimum of three times.
Treatments were allowed to dry overnight. […] Treatments were replicated minimum of three times. […] The results are shown in FIG. 84 (No adjuvant alone treatment was performed).

Data set [4] has as its system Red Imported Fire ant (RIFA), Solenopsis invicta. Described as above. Format: in vivo. To be noted: Table 52, fipronil/adjuvant in acetone, glazed tile.
Excerpt: as §2, §3

Data set [5] has as its system susceptible/normal German cockroach (Monheim strain), Blattella germanica. As to the kind of experiment: Knockdown/mortality of male cockroaches under continuous exposure on treated glazed tile. Format: in vivo. The note with it: Table 53, fipronil/adjuvant in acetone, glazed tile, Monheim strain. The protocol: Treatments were allowed to dry overnight. […] Treatments were replicated a minimum of three times. […]
Treatments were allowed to dry overnight. […] Treatments were replicated a minimum of three times. Cockroach knockdown/mortality was evaluated at 5 minute intervals for the first 60 minutes after exposure and then at 2, 18 and 24 hours.

Where [6] appears, read: Table 48, fipronil/adjuvant in acetone.
Where [7] appears, read: Table 37, resmethrin/adjuvant in acetone.

With `CNC(=O)Oc1cccc2c1OC(C)(C)O2` [0.01% = 5 mg Bendiocarb/m^2], in data set [1], the “% KD and Mortality 3′” value is listed as 0%; the “% KD and Mortality 9′” value stood at 0%; the “% KD and Mortality 15′” value came to 0%; the “% KD and Mortality 30′” value is 0%. Besides, in data set [1], the “% KD and Mortality 1 h” value amounted to 0%; the “% KD and Mortality 24 h” value was found to be 0%.
For the compound `CNC(=O)Oc1cccc2c1OC(C)(C)O2` [0.1% = 50 mg Bendiocarb/m^2], in data set [1], the “% KD and Mortality 3′” value amounted to 0%; the “% KD and Mortality 9′” value was 0%; the “% KD and Mortality 15′” value amounted to 0%; the “% KD and Mortality 30′” value stood at 15%. Also, in data set [1], the “% KD and Mortality 1 h” value was 37%; the “% KD and Mortality 24 h” value is listed as 81%.
On to `N#Cc1nn(-c2c(Cl)cc(C(F)(F)F)cc2Cl)c(N)c1[S+]([O-])C(F)(F)F` (stereo not drawn) [Fipronil (.0001%)], for which the “Average % Mortality after 30 min” value in data set [2] (30 min) came out at 0%; in data set [3] (30 min) it was 0%; in data set [4] (30 min), 3%. The “Average % Mortality after 60 min” value in data set [2] (60 min) is listed as 0%; in data set [3] (60 min) it was 3%; in data set [4] (60 min), 3%. Besides, the results for the “Average % Mortality after 2 hr” value in data set [2] (2 hr), in data set [3] (2 hr) and in data set [4] (2 hr) were 0%, 3% and 3%, respectively. The “Average % Mortality after 3 hr” value came out at 0% in data set [2] (3 hr) and 6% in data set [4] (3 hr). Also, the entries for the “Average % Mortality after 24 hr” value in data set [2] (24 hr), in data set [3] (24 hr) and in data set [4] (24 hr) were 74%, 54% and 47%, respectively. The “Average % Knockdown & Mortality after 15 min” value with Aedes aegypti mosquito (setting [6]) is given as 0%. For the same compound, the “Average % Knockdown & Mortality after 30 min” value with Aedes aegypti mosquito (setting [6]) amounted to 0%. Further, the “Average % Knockdown & Mortality after 60 min” value (in the data set on Aedes aegypti mosquito (setting [6]); in data set [5] (60 min)) was 0% throughout. In the data set with Aedes aegypti mosquito (4 hr, Table 48, fipronil/adjuvant in acetone), the “Average % Knockdown & Mortality after 4 hr” value is on record as 3%. Besides, the “Average % Knockdown & Mortality after 6 hr” value with Aedes aegypti mosquito (6 hr, Table 48, fipronil/adjuvant in acetone) turned out to be 3%. Also, the results for the “Average % Knockdown & Mortality after 24 hr” value (with Aedes aegypti mosquito (setting [6]); in data set [5] (24 hr)) were 9% and 7%, respectively. Besides, the “Average % Knockdown & Mortality after 3 hr” value in data set [5] (3 hr) is reported as 7%. Besides, the “Average % Knockdown & Mortality after 5 hr” value in data set [5] (5 hr) was 7%.
In the case of `CC(C)=CC1C(C(=O)OCc2coc(Cc3ccccc3)c2)C1(C)C` (stereo not drawn) [Resmethrin (0.5%)], the “Average % Knockdown & Mortality after 3 min” value in the data set with Aedes aegypti mosquito (3 min, Table 37, resmethrin/adjuvant in acetone) was 0%. In addition, in the data set with Aedes aegypti mosquito (setting [7]), the “Average % Knockdown & Mortality after 15 min” value is on record as 0%, the “Average % Knockdown & Mortality after 30 min” value came to 0%, the “Average % Knockdown & Mortality after 60 min” value is on record as 0% and the “Average % Knockdown & Mortality after 24 hr” value was found to be 8%. Further, in data set [1] (in vivo), the “Average % Knockdown & Mortality after 3 min” value was determined as 0%, the “Average % Knockdown & Mortality after 15 min” value came out at 0%, the “Average % Knockdown & Mortality after 30 min” value is reported as 0% and the “Average % Knockdown & Mortality after 60 min” value stood at 0%. In data set [1] (in vivo), the “Average % Knockdown & Mortality after 2 hr” value came out at 0% and the “Average % Knockdown & Mortality after 24 hr” value is given as 0%.
Regarding `CNC(=O)Oc1cccc2ccccc12` [carbaryl (0.1%)], in data set [1], the “Average % Mortality after 1 hr” value came to 0% and the “Average % Mortality after 3 hr” value came out at 0%.
Take `CNC(=O)Oc1cccc2ccccc12` [carbaryl (2.5%)]: in data set [1], the “Average % Mortality after 1 hr” value worked out at 0%, the “Average % Mortality after 3 hr” value is reported as 0%, the “Average % Mortality after 5 hr” value came out at 2% and the “Average % Mortality after 24 hr” value is 5%.
For the compound `CNC(=O)Oc1cccc2ccccc12` [carbaryl (5%)], in data set [1], the “Average % Mortality after 1 hr” value was 0%, the “Average % Mortality after 3 hr” value worked out at 0%, the “Average % Mortality after 5 hr” value was found to be 0% and the “Average % Mortality after 24 hr” value stood at 0%.
